From PubChem BioAssay AID330 (DTP/NCI, 2004)
Values joined by “and” are separate entries in the source; they are usually repeats but may differ in a detail not shown here. Equal values may be shown once. Toxic doses and inconclusive results are not listed.

Tested on: P388 leukemia ip, CD2F1 mice, survival T/C
Assay: NCI In Vivo Anticancer Drug Screen. Data for tumor model P388 Leukemia (intraperitoneal) in CD2F1 (CDF1) mice
Conditions: endpoint: median survival time, higher = longer survival
Method in brief: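 Mice carrying the transplanted tumor received test compound or vehicle. Survival was recorded in each group, and the value is the treated-group measurement divided by that of the vehicle-treated control group.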

[1] = dose: 25.0 mg/kg/injection, schedule: Q01DX009 (ip), vehicle: saline with Tween-80
[2] = dose: 100.0 mg/kg/injection, schedule: Q01DX009 (ip), vehicle: saline with Tween-80
[3] = dose: 200.0 mg/kg/injection, schedule: Q01DX009 (ip), vehicle: saline with Tween-80
[4] = dose: 50.0 mg/kg/injection, schedule: Q04DX003 (ip), vehicle: saline
[5] = dose: 100.0 mg/kg/injection, schedule: Q04DX003 (ip), vehicle: saline
[6] = dose: 50.0 mg/kg/injection, schedule: Q01DX005 (ip), vehicle: saline with Tween-80
[7] = dose: 100.0 mg/kg/injection, schedule: Q01DX005 (ip), vehicle: saline with Tween-80
[8] = dose: 60.0 mg/kg/injection, schedule: Q01DX005 (ip), vehicle: saline with Tween-80
[9] = dose: 120.0 mg/kg/injection, schedule: Q01DX005 (ip), vehicle: saline with Tween-80

## CSc1ncnc2c1ncn2C1OC(CO)C(O)C1O (centres undefined)
dose: 2.0 mg/kg/injection, schedule: Q01DX010 (ip), vehicle: saline
  T/C: 107 % of control
dose: 4.0 mg/kg/injection, schedule: Q01DX010 (ip), vehicle: saline
  T/C: 102 % of control and 104 % of control
dose: 8.0 mg/kg/injection, schedule: Q01DX010 (ip), vehicle: saline
  T/C: 100 % of control and 116 % of control
dose: 16.0 mg/kg/injection, schedule: Q01DX010 (ip), vehicle: saline
  T/C: 109 % of control and 120 % of control
[1]
  T/C: 95 % of control
dose: 50.0 mg/kg/injection, schedule: Q01DX009 (ip), vehicle: saline with Tween-80
  T/C: 93 % of control
dose: 54.0 mg/kg/injection, schedule: Q01DX001 (ip), vehicle: saline
  T/C: 111 % of control
dose: 82.0 mg/kg/injection, schedule: Q01DX001 (ip), vehicle: saline
  T/C: 117 % of control and 118 % of control
[2]
  T/C: 104 % of control
[3]
  T/C: 101 % of control

## Sc1cn2ccccc2n1
[4]
  T/C: 105 % of control
[5]
  T/C: 97 % of control
dose: 200.0 mg/kg/injection, schedule: Q04DX003 (ip), vehicle: saline
  T/C: 103 % of control

## CCSCCNC(=O)[C@@]1(O)[C@H](O)[C@]2(CC)C=CCN3CC[C@@]4(c5cc([C@@]6(OC(C)=O)C[C@H]7C=C(CC)CN(CCc8c6[nH]c6ccccc86)C7)c(OC)cc5N(C)[C@@H]14)[C@@H]32
dose: 0.5 mg/kg/injection, schedule: Q01DX001 (ip), vehicle: water
  T/C: 118 % of control
dose: 1.0 mg/kg/injection, schedule: Q01DX001 (ip), vehicle: water
  T/C: 118 % of control
dose: 4.0 mg/kg/injection, schedule: Q01DX001 (ip), vehicle: water
  T/C: 165 % of control
dose: 8.0 mg/kg/injection, schedule: Q01DX001 (ip), vehicle: water
  T/C: 174 % of control

## Cc1cc(C2=CSC3=NCCN23)ccc1Cl
[6]
  T/C: 107 % of control
[7]
  T/C: 105 % of control

## CC(CCC(=O)O)(c1ccc(O)cc1)c1ccc(O)cc1
dose: 100.0 mg/kg/injection, schedule: Q04DX003 (ip), vehicle: other
  T/C: 95 % of control
dose: 200.0 mg/kg/injection, schedule: Q04DX003 (ip), vehicle: other
  T/C: 95 % of control
dose: 400.0 mg/kg/injection, schedule: Q04DX003 (ip), vehicle: other
  T/C: 90 % of control

## N#Cc1c(N2CCOCC2)cc(-c2ccccc2)oc1=O
dose: 25.0 mg/kg/injection, schedule: Q04DX002 (ip), vehicle: saline with Tween-80
  T/C: 101 % of control
dose: 50.0 mg/kg/injection, schedule: Q04DX002 (ip), vehicle: saline with Tween-80
  T/C: 97 % of control
dose: 100.0 mg/kg/injection, schedule: Q04DX002 (ip), vehicle: saline with Tween-80
  T/C: 100 % of control

## O=C(CNC(=O)Nc1ccc(NC(=O)NCC(=O)Nc2ccc(C3=NCCN3)cc2)cc1)Nc1ccc(C2=NCCN2)cc1
dose: 50.0 mg/kg/injection, schedule: Q01DX009 (ip), vehicle: saline
  T/C: 105 % of control and 106 % of control
dose: 100.0 mg/kg/injection, schedule: Q01DX009 (ip), vehicle: saline
  T/C: 93 % of control
dose: 200.0 mg/kg/injection, schedule: Q01DX009 (ip), vehicle: saline
  T/C: 111 % of control and 97 % of control

## CCCNC(=S)Nc1ccc(F)cc1F
dose: 3.12 mg/kg/injection, schedule: Q01DX009 (ip), vehicle: other
  T/C: 108 % of control
dose: 6.25 mg/kg/injection, schedule: Q01DX009 (ip), vehicle: other
  T/C: 107 % of control and 110 % of control and 89 % of control
dose: 12.5 mg/kg/injection, schedule: Q01DX009 (ip), vehicle: other
  T/C: 99 % of control and 100 % of control and 101 % of control
dose: 25.0 mg/kg/injection, schedule: Q01DX009 (ip), vehicle: other
  T/C: 108 % of control and 121 % of control and 96 % of control

## CCCCCCCCCCCCCCCC[N+](C)(C)CCOS(C)(=O)=O
dose: 12.5 mg/kg/injection, schedule: Q01DX009 (ip), vehicle: saline with Tween-80
  T/C: 110 % of control
[1]
  T/C: 116 % of control

## Nc1nccc(NCCCCCCNc2ccnc(N)n2)n1
dose: 12.5 mg/kg/injection, schedule: Q04DX002 (ip), vehicle: saline
  T/C: 104 % of control and 108 % of control
dose: 25.0 mg/kg/injection, schedule: Q04DX002 (ip), vehicle: saline
  T/C: 106 % of control and 114 % of control
dose: 50.0 mg/kg/injection, schedule: Q04DX002 (ip), vehicle: saline
  T/C: 105 % of control and 114 % of control
dose: 100.0 mg/kg/injection, schedule: Q04DX002 (ip), vehicle: saline
  T/C: 114 % of control and 119 % of control
dose: 200.0 mg/kg/injection, schedule: Q04DX002 (ip), vehicle: saline
  T/C: 116 % of control and 123 % of control

## COC(=O)C/C(=C\c1cn(C(C)=O)c2ccccc12)[N+](=O)[O-]
dose: 6.25 mg/kg/injection, schedule: Q01DX005 (ip), vehicle: Klucel (hydroxypropylcellulose) (HPC)
  T/C: 89 % of control
dose: 12.5 mg/kg/injection, schedule: Q01DX005 (ip), vehicle: Klucel (hydroxypropylcellulose) (HPC)
  T/C: 98 % of control
dose: 25.0 mg/kg/injection, schedule: Q01DX005 (ip), vehicle: Klucel (hydroxypropylcellulose) (HPC)
  T/C: 91 % of control

## COc1ccc2c(c1)[C@@]13CCCC[C@H]1[C@H](N(C)CC3)C21CC1
dose: 100.0 mg/kg/injection, schedule: Q01DX001 (ip), vehicle: Klucel (hydroxypropylcellulose) (HPC)
  T/C: 97 % of control
dose: 200.0 mg/kg/injection, schedule: Q01DX001 (ip), vehicle: Klucel (hydroxypropylcellulose) (HPC)
  T/C: 102 % of control

## CN(C)c1ccc(N=C2C(c3ccccc3)=[N+]([O-])c3ccccc32)cc1
[8]
  T/C: 93 % of control
[9]
  T/C: 93 % of control
dose: 240.0 mg/kg/injection, schedule: Q01DX005 (ip), vehicle: saline with Tween-80
  T/C: 100 % of control

## c1ccc(N2CCCCCN2c2ccccc2)cc1
dose: 25.0 mg/kg/injection, schedule: Q01DX001 (ip), vehicle: saline with Tween-80
  T/C: 100 % of control
dose: 50.0 mg/kg/injection, schedule: Q01DX001 (ip), vehicle: saline with Tween-80
  T/C: 100 % of control
dose: 100.0 mg/kg/injection, schedule: Q01DX001 (ip), vehicle: saline with Tween-80
  T/C: 100 % of control
dose: 200.0 mg/kg/injection, schedule: Q01DX001 (ip), vehicle: saline with Tween-80
  T/C: 92 % of control

## CC1=C(C(=O)CC(=O)C(=O)Nc2ccc(Cl)cc2Cl)Sc2ccccc2N1
[8]
  T/C: 100 % of control
[9]
  T/C: 100 % of control

## COC(=O)Nc1nc2ccc(C(=O)c3ccccc3)cc2[nH]1
dose: 2.0 mg/kg/injection, schedule: Q04DX003 (ip), vehicle: saline with Tween-80
  T/C: 100 % of control
dose: 4.0 mg/kg/injection, schedule: Q04DX003 (ip), vehicle: saline with Tween-80
  T/C: 100 % of control
dose: 8.0 mg/kg/injection, schedule: Q04DX003 (ip), vehicle: saline with Tween-80
  T/C: 113 % of control
dose: 16.0 mg/kg/injection, schedule: Q04DX003 (ip), vehicle: saline with Tween-80
  T/C: 118 % of control
dose: 32.0 mg/kg/injection, schedule: Q04DX003 (ip), vehicle: saline with Tween-80
  T/C: 202 % of control
dose: 64.0 mg/kg/injection, schedule: Q04DX003 (ip), vehicle: saline with Tween-80
  T/C: 190 % of control
dose: 80.0 mg/kg/injection, schedule: Q04DX003 (ip), vehicle: other
  T/C: 192 % of control
dose: 80.0 mg/kg/injection, schedule: Q04DX003 (oral), vehicle: other
  T/C: 112 % of control and 113 % of control
dose: 80.0 mg/kg/injection, schedule: Q04DX003 (oral), vehicle: saline
  T/C: 98 % of control
dose: 320.0 mg/kg/injection, schedule: Q04DX003 (oral), vehicle: saline
  T/C: 115 % of control
dose: 1280.0 mg/kg/injection, schedule: Q04DX003 (oral), vehicle: saline
  T/C: 165 % of control

## CNC(=O)OCc1nc(SC)n(Cc2ccccc2)c1COC(=O)NC
dose: 12.5 mg/kg/injection, schedule: Q01DX005 (ip), vehicle: saline with Tween-80
  T/C: 100 % of control
dose: 25.0 mg/kg/injection, schedule: Q01DX005 (ip), vehicle: saline with Tween-80
  T/C: 110 % of control
[6]
  T/C: 110 % of control and 116 % of control
[7]
  T/C: 106 % of control and 116 % of control

## C=C1C(=O)OC2C1C(OC(=O)/C(C)=C\C)CC1(CO1)C1C(O)C=C(C)C21O (centres undefined)
dose: 25.0 mg/kg/injection, schedule: Q04DX003 (ip), vehicle: saline with Tween-80
  T/C: 112 % of control
dose: 50.0 mg/kg/injection, schedule: Q04DX003 (ip), vehicle: saline with Tween-80
  T/C: 113 % of control

## CC(=N/N=C(N)N)/C(C)=N\Nc1ccc(Cl)cc1
dose: 25.0 mg/kg/injection, schedule: Q04DX003 (ip), vehicle: saline
  T/C: 101 % of control
[4]
  T/C: 101 % of control
[5]
  T/C: 108 % of control and 88 % of control

## CCN(CCC(=O)OC)Cc1ccnc2ccccc12
dose: 50.0 mg/kg/injection, schedule: Q01DX005 (ip), vehicle: saline
  T/C: 103 % of control
dose: 100.0 mg/kg/injection, schedule: Q01DX005 (ip), vehicle: saline
  T/C: 113 % of control
dose: 200.0 mg/kg/injection, schedule: Q01DX005 (ip), vehicle: saline
  T/C: 106 % of control

## CC1OC(=O)c2ccccc2S1=O (centres undefined)
[2]
  T/C: 95 % of control
[3]
  T/C: 90 % of control
dose: 400.0 mg/kg/injection, schedule: Q01DX009 (ip), vehicle: saline with Tween-80
  T/C: 95 % of control
